The results in this text go back to patent US11229623B2 (GlaxoSmithKline Intellectual Property (No.2) Limited, priority 2016, dated 2022).

The structures appear in SMILES notation. Where a name gives a salt, the structure may show the parent alone.

The target in this test is T1, human TRPV4 (Homo sapiens, UniProt Q9HBA0).
T1 construct: expressed in transfected cells; host or cells: BHK/AC9 cells transduced with BacMam virus
T1 sequence (Q9HBA0 whole entry): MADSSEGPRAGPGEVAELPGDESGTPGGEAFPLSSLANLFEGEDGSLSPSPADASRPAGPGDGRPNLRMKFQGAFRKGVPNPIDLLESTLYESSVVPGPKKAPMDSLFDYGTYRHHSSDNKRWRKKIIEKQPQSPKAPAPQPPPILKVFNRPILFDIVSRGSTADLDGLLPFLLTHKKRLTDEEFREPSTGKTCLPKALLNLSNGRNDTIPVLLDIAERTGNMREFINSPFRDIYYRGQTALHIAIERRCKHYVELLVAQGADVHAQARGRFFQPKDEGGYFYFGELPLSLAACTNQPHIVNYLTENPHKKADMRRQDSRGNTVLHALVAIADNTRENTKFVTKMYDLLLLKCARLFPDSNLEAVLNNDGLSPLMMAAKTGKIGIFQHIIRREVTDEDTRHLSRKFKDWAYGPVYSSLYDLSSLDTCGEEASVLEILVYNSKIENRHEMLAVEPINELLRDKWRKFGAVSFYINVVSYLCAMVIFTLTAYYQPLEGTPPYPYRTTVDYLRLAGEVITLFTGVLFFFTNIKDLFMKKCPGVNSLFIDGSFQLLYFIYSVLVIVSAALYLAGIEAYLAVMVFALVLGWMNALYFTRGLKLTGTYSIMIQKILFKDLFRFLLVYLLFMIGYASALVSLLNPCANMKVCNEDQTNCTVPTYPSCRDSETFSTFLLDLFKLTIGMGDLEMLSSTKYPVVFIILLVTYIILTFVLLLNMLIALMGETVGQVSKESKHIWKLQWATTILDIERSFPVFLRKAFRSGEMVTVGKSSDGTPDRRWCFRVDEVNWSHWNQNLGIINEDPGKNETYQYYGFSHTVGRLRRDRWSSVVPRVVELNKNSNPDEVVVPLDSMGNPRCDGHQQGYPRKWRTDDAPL
In words: FLIPR assay for hTRPV4 expressed in BHK cells: inhibition of Agonist Compound-induced calcium signal. The test is classed as cell-based. The settings on record: hTRPV4 in BHK/AC9 cells, FLIPR calcium signal, agonist at EC80; reported as range class; read-out: IC50. Put shortly: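 BHK/AC9 cells transduced with BacMam human TRPV4 (MOI 78), plated 15,000 per well and cultured 24 h at 37° C. Loaded with 2 μM Fluo-4 AM plus 500 μM Brilliant Black in HBSS for 1-1.5 h at room temperature in the dark; intracellular calcium signal read by FLIPR fluorescence.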
Regarding `N#Cc1ccc(O[C@H]2CN(S(=O)(=O)c3ccc(OC(F)(F)F)cn3)C[C@@]2(O)CN)cc1F` [Example 248, 4-(((3S,4S)-4-(aminomethyl)-4-hydroxy-1-((5-(trifluoromethoxy)pyridin-2-yl)sulfonyl)pyrrolidin-3-yl)oxy)-2-fluorobenzonitrile], the IC50 (commonly the concentration that gives 50% inhibition) lay within 10 to 100 nM.

Consider `N#Cc1ccc(O[C@H]2CN(S(=O)(=O)c3ccc(OC(F)(F)F)nc3)C[C@@]2(O)CN)cc1F` [Example 249, 4-(((3S,4S)-4-(aminomethyl)-4-hydroxy-1-((6-(trifluoromethoxy)pyridin-3-yl)sulfonyl)pyrrolidin-3-yl)oxy)-2-fluorobenzonitrile, Hydrochloride], for which the IC50 fell in the range of 10 to 100 nM.

As to `N#Cc1ccc(O[C@H]2CN(S(=O)(=O)c3ccc(I)cn3)C[C@@]2(O)CN)cc1F` [Example 250, 4-(((3S,4S)-4-(aminomethyl)-4-hydroxy-1-((5-iodopyridin-2-yl)sulfonyl)pyrrolidin-3-yl)oxy)-2-fluorobenzonitrile, 2,2,2-trifluoroacetate], the IC50 lay in the range of 0.1 to 10 nM.

Turning to `N#Cc1ccc(O[C@H]2CN(S(=O)(=O)c3ccc(Br)cn3)C[C@@]2(O)CN)cc1F` [Example 251, 4-(((3S,4S)-4-(aminomethyl)-1-((5-bromopyridin-2-yl)sulfonyl)-4-hydroxpyrrolidin-3-yl)oxy)-2-fluorobenzonitrile, 2,2,2-trifluoroacetate], the IC50 was 0.1 to 10 nM.

On to `CN1CCO[C@]2(C1)CN(S(=O)(=O)c1ccc(Cl)cc1C#N)C[C@@H]2Oc1ccc(C#N)c(F)c1` [Example 252, 4-(((4S,5R)-2-((4-chloro-2-cyanophenyl)sulfonyl)-9-methyl-6-oxa-2,9-diazaspiro[4.5]decan-4-yl)oxy)-2-fluorobenzonitrile], for which the IC50 was 0.1 to 10 nM.

As to `N#Cc1ccc(O[C@H]2CN(S(=O)(=O)c3ccc(Cl)cc3C#N)C[C@@]23CNC(=O)O3)cc1F` [Example 254, 4-(((5S,9S)-7-((4-chloro-2-cyanophenyl)sulfonyl)-2-oxo-1-oxa-3,7-diazaspiro[4.4]nonan-9-yl)oxy)-2-fluorobenzonitrile], the IC50 lay in the range of 10 to 100 nM.

Regarding `N#Cc1ccc(O[C@H]2CN(S(=O)(=O)c3ccc(Cl)cc3C#N)C[C@]23CNC(=O)O3)cc1F` [Example 255, 4-(((5R,9S)-7-((4-chloro-2-cyanophenyl)sulfonyl)-2-oxo-1-oxa-3,7-diazaspiro[4.4]nonan-9-yl)oxy)-2-fluorobenzonitrile], the half-inhibitory concentration (IC50) was in the range of 0.1 to 10 nM.

In the case of `C[C@@H](N)[C@]1(O)CN(S(=O)(=O)c2ccc(Cl)cn2)C[C@@H]1Oc1ccc(C#N)c(F)c1` [Example 256, 4-(((3S,4R)-4-((R)-1-aminoethyl)-1-((5-chloropyridin-2-yl)sulfonyl)-4-hydroxypyrrolidin-3-yl)oxy)-2-fluorobenzonitrile, 2,2,2-trifluoroacetate], the IC50 lay in the range of 10 to 100 nM.

Turning to `C[C@H](N)[C@]1(O)CN(S(=O)(=O)c2ccc(Cl)cn2)C[C@@H]1Oc1ccc(C#N)c(F)c1` [Example 257, 4-(((3S,4R)-4-((S)-1-aminoethyl)-1-((5-chloropyridin-2-yl)sulfonyl)-4-hydroxypyrrolidin-3-yl)oxy)-2-fluorobenzonitrile, 2,2,2-trifluoroacetate], the IC50 was 10 to 100 nM.

`N#Cc1ccc(O[C@H]2CN(S(=O)(=O)c3ccc(OC(F)(F)F)cc3C#N)C[C@@]2(O)CO)cc1F` [compound 232, 4-(((3S,4R)-1-((2-cyano-4-(trifluoromethoxy)phenyl)sulfonyl)-4-hydroxy-4-(hydroxymethyl)pyrrolidin-3-yl)oxy)-2-fluorobenzonitrile]: the IC50 lay within 0.1 to 10 nM.

For `N#Cc1ccc(O[C@H]2CN(S(=O)(=O)c3ccc(Cl)cc3C#N)C[C@@]23CNCCO3)cc1F` [compound 253], the half-inhibitory concentration (IC50) lay within 0.1 to 10 nM.
